Legend:
Assay type in all cases: cell-based
Serratia marcescens = assay: MIC against Gram-negative bacteria: Serratia marcescens; details: 5×10^5 CFU/mL
Method in brief: (§1)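 Antibacterial activity of purified human EGF domain proteins: two-fold concentration series, triplicate wells, LB broth, 5×10^5 CFU/mL bacteria, 37° C shaking incubation. The lowest concentration without growth defines the MIC.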

Moraxella catarrhalis = assay: MIC against Gram-negative bacteria: Moraxella catarrhalis; details: 5×10^5 CFU/mL
Method in brief: as §1

Citrobacter diversus = assay: MIC against Gram-negative bacteria: Citrobacter diversus; details: 5×10^5 CFU/mL
Method in brief: as §1

Klebsiella pneumonia = assay: MIC against Gram-negative bacteria: Klebsiella pneumonia; details: 5×10^5 CFU/mL
Method in brief: as §1

Enterobacter cloacae = assay: MIC against Gram-negative bacteria: Enterobacter cloacae; details: 5×10^5 CFU/mL
Method in brief: as §1

E. coli DH5α = assay: Antibacterial activity: MIC and growth curve against E. coli DH5α in 96-well plate; details: minimal inhibitory concentration against E. coli DH5α; 96-well plate, 5×10^5 CFU/mL, 37° C., judged after 8 h
Method in brief: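 Log-phase DH5α (OD600 about 0.5, 37° C, 185 rpm in LB) was pelleted, resuspended in fresh LB and seeded at 5×10^5 CFU/mL with recombinant protein at 50, 25 and 12.5 μg/mL (two-fold series), in triplicate. Plates were shaken at 175 rpm, 37° C, and OD600 was read every 30 min. MIC was the lowest concentration with no growth.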

Proteus mirabilis = assay: MIC against Gram-negative bacteria: Proteus mirabilis; details: 5×10^5 CFU/mL
Method in brief: as §1

Aeromonas hydrophila = assay: MIC against Gram-negative bacteria: Aeromonas hydrophila; details: 5×10^5 CFU/mL
Method in brief: as §1

E. coli BL21 = assay: MIC against Gram-negative bacteria: E. coli BL21; details: 5×10^5 CFU/mL
Method in brief: as §1

Proteus vulgaris = assay: MIC against Gram-negative bacteria: Proteus vulgaris; details: 5×10^5 CFU/mL
Method in brief: as §1

Pseudomonas aeruginosa = assay: MIC against Gram-negative bacteria: Pseudomonas aeruginosa; details: 5×10^5 CFU/mL
Method in brief: as §1

[1] = E. coli BL21, 10 h cultivation at 37° C.
[2] = 10 h cultivation at 37° C., two-fold serial dilution

PRT707 (GKTVCEDFCQNGGTCIVTAGNQPYCHCQPEYTGDRCQ; listed as Homo sapiens)
MIC S. marcescens (Serratia marcescens; 96-well plate, 37° C., 10 h): 12.5 µg/mL
MIC M. catarrhalis (Moraxella catarrhalis; 96-well plate, 37° C., 10 h): 12.5 µg/mL
MIC C. diversus (Citrobacter diversus; 96-well plate, 37° C., 10 h): 12.5 µg/mL
MIC K. pneumonia (Klebsiella pneumonia; 96-well plate, 37° C., 10 h): 12.5 µg/mL
MIC E. cloacae (Enterobacter cloacae; 96-well plate, 37° C., 10 h): 12.5 µg/mL
MIC (E. coli DH5α): 50 µg/mL
MIC P. mirabilis (Proteus mirabilis; 96-well plate, 37° C., 10 h): 12.5 µg/mL
MIC A. hydrophila (Aeromonas hydrophila; 96-well plate, 37° C., 10 h): 25 µg/mL
MIC E. coli BL21 (E. coli BL21; 96-well plate, 37° C., 10 h): 25 µg/mL
MIC P. vulgaris (Proteus vulgaris; 96-well plate, 37° C., 10 h): 25 µg/mL
MIC P. aeruginosa (Pseudomonas aeruginosa; 96-well plate, 37° C., 10 h): 50 µg/mL

PRT1249 (NQCACNSSPCEQQSGRCQCRERTFGARCD; listed as Homo sapiens)
MIC against S. marcescens (Serratia marcescens; Serratia marcescens, 96-well plate, 37° C., 10 h): 25 µg/mL
MIC against M. catarrhalis (Moraxella catarrhalis; Moraxella catarrhalis, 96-well plate, 37° C., 10 h): 12.5 µg/mL
MIC against C. diversus (Citrobacter diversus; Citrobacter diversus, 96-well plate, 37° C., 10 h): 50 µg/mL
MIC against K. pneumonia (Klebsiella pneumonia; Klebsiella pneumonia, 96-well plate, 37° C., 10 h): 12.5 µg/mL
MIC against E. cloacae (Enterobacter cloacae; Enterobacter cloacae, 96-well plate, 37° C., 10 h): 50 µg/mL
MIC (E. coli DH5α): 12.5 µg/mL
MIC against P. mirabilis (Proteus mirabilis; Proteus mirabilis, 96-well plate, 37° C., 10 h): 25 µg/mL
MIC against A. hydrophila (Aeromonas hydrophila; Aeromonas hydrophila, 96-well plate, 37° C., 10 h): 12.5 µg/mL
MIC against E. coli BL21 (E. coli BL21; E. coli BL21, 96-well plate, 37° C., 10 h): 12.5 µg/mL
MIC against P. vulgaris (Proteus vulgaris; Proteus vulgaris, 96-well plate, 37° C., 10 h): 50 µg/mL
MIC against P. aeruginosa (Pseudomonas aeruginosa; Pseudomonas aeruginosa, 96-well plate, 37° C., 10 h): 50 µg/mL

PRT753 (RKDVCKSTHHGCEHICVNNGNSYICKCSEGFVLAEDGRRCK; listed as Homo sapiens)
MIC (μg/mL) S. marcescens (Serratia marcescens; S. marcescens, 10 h cultivation at 37° C.): 50 µg/mL
MIC (μg/mL) M. catarrhalis (Moraxella catarrhalis; M. catarrhalis, 10 h cultivation at 37° C.): 50 µg/mL
MIC (μg/mL) C. diversus (Citrobacter diversus; C. diversus, 10 h cultivation at 37° C.): 12.5 µg/mL
MIC (μg/mL) K. pneumonia (Klebsiella pneumonia; K. pneumonia, 10 h cultivation at 37° C.): 50 µg/mL
MIC (μg/mL) E. cloacae (Enterobacter cloacae; E. cloacae, 10 h cultivation at 37° C.): 12.5 µg/mL
MIC (E. coli DH5α): 25 µg/mL
MIC (μg/mL) P. mirabilis (Proteus mirabilis; P. mirabilis, 10 h cultivation at 37° C.): 12.5 µg/mL
MIC (μg/mL) A. hydrophila (Aeromonas hydrophila; A. hydrophila, 10 h cultivation at 37° C.): 50 µg/mL
MIC (μg/mL) E. coli BL21 (E. coli BL21; [1]): 50 µg/mL
MIC (μg/mL) P. vulgaris (Proteus vulgaris; P. vulgaris, 10 h cultivation at 37° C.): 25 µg/mL
MIC (μg/mL) P. aeruginosa (Pseudomonas aeruginosa; P. aeruginosa, 10 h cultivation at 37° C.): 12.5 µg/mL

PRT549 (CDCSGNGDPNLLFSDCDPLTGACRGCLRHTTGPRCEICAPGFYGNALLPGNCTR; listed as Homo sapiens)
MIC against S. marcescens (Serratia marcescens; 96-well plate, 37° C., 10 h): 12.5 µg/mL
MIC against M. catarrhalis (Moraxella catarrhalis; 96-well plate, 37° C., 10 h): 25 µg/mL
MIC against C. diversus (Citrobacter diversus; 96-well plate, 37° C., 10 h): 12.5 µg/mL
MIC against K. pneumonia (Klebsiella pneumonia; 96-well plate, 37° C., 10 h): 50 µg/mL
MIC against E. cloacae (Enterobacter cloacae; 96-well plate, 37° C., 10 h): 12.5 µg/mL
MIC (E. coli DH5α): 12.5 µg/mL
MIC against P. mirabilis (Proteus mirabilis; 96-well plate, 37° C., 10 h): 12.5 µg/mL
MIC against A. hydrophila (Aeromonas hydrophila; 96-well plate, 37° C., 10 h): 50 µg/mL
MIC against E. coli BL21 (E. coli BL21; 96-well plate, 37° C., 10 h): 50 µg/mL
MIC against P. vulgaris (Proteus vulgaris; 96-well plate, 37° C., 10 h): 25 µg/mL
MIC against P. aeruginosa (Pseudomonas aeruginosa; 96-well plate, 37° C., 10 h): 12.5 µg/mL

PRT1405 (PTTQCIDPQCGGRGICIMGSCACNSGYKGESCE; listed as Homo sapiens)
MIC against S. marcescens (Serratia marcescens; Serratia marcescens, 10 h cultivation at 37° C.): 12.5 µg/mL
MIC against M. catarrhalis (Moraxella catarrhalis; Moraxella catarrhalis, 10 h cultivation at 37° C.): 12.5 µg/mL
MIC against C. diversus (Citrobacter diversus; Citrobacter diversus, 10 h cultivation at 37° C.): 12.5 µg/mL
MIC against K. pneumonia (Klebsiella pneumonia; Klebsiella pneumonia, 10 h cultivation at 37° C.): 12.5 µg/mL
MIC against E. cloacae (Enterobacter cloacae; Enterobacter cloacae, 10 h cultivation at 37° C.): 12.5 µg/mL
MIC (E. coli DH5α): 12.5 µg/mL
MIC against P. mirabilis (Proteus mirabilis; Proteus mirabilis, 10 h cultivation at 37° C.): 12.5 µg/mL
MIC against A. hydrophila (Aeromonas hydrophila; Aeromonas hydrophila, 10 h cultivation at 37° C.): 12.5 µg/mL
MIC against E. coli BL21 (E. coli BL21; [1]): 12.5 µg/mL
MIC against P. vulgaris (Proteus vulgaris; Proteus vulgaris, 10 h cultivation at 37° C.): 50 µg/mL
MIC against P. aeruginosa (Pseudomonas aeruginosa; Pseudomonas aeruginosa, 10 h cultivation at 37° C.): 12.5 µg/mL

PRT1190 (DLNYCGSHHPCTNGGTCINAEPDQYRCTCPDGYSGRNCE; listed as Homo sapiens)
MIC S. marcescens (Serratia marcescens; [2]): 50 µg/mL
MIC M. catarrhalis (Moraxella catarrhalis; [2]): 50 µg/mL
MIC C. diversus (Citrobacter diversus; [2]): 25 µg/mL
MIC K. pneumonia (Klebsiella pneumonia; [2]): 12.5 µg/mL
MIC E. cloacae (Enterobacter cloacae; [2]): 50 µg/mL
MIC (E. coli DH5α): 50 µg/mL
MIC P. mirabilis (Proteus mirabilis; [2]): 25 µg/mL
MIC A. hydrophila (Aeromonas hydrophila; [2]): 12.5 µg/mL
MIC E. coli BL21 (E. coli BL21; [2]): 12.5 µg/mL
MIC P. vulgaris (Proteus vulgaris; [2]): 12.5 µg/mL
MIC P. aeruginosa (Pseudomonas aeruginosa; [2]): 25 µg/mL

— US9833497B2, “Human originated EGF domain proteins and use of the same” (CHENGDU SOURCEBIO LIMITED-LIABILITY COMPANY, priority 2013, dated 2017)
